Experiment [1] deals with HT-29 human colon carcinoma. Briefly: HT-29 xenograft, A12 with CPT-11 or paclitaxel. Type of experiment: in vivo, nu/nu mice. On the procedure:
[…] nu/nu mice were injected subcutaneously with HT-29 human colon carcinoma cell suspension, at 5×10^6 cells in 0.4 ml mixed 1:1 with Matrigel. […] All treatments were administered by intraperitoneal injection.
Treatment continued for six weeks and tumor measurements were recorded twice weekly using the formula Volume=(π/6)l×w^2. At day 21 four animals per group were sacrificed and the tumors resected for histological evaluation. Treatment and tumor measurements continued on the remaining animals until day 40. At that time final tumor measurements were recorded, animals sacrificed, and four per group had tumor resected for endpoint histological evaluation.

Another experiment addresses IGF-IR (Homo sapiens, UniProt P08069). Briefly: Human IGF-IR binding ELISA. Particulars: full IgG; 50% binding relative to saturation; read-out: Binding (ED50). Further details: recombinant extracellular portion of human IGF-IR was used to screen. The procedure: Binding results were determined by human IGF-IR ELISA and represent the concentration of titered antibody necessary to achieve 50% binding relative to saturation. Blocking results represent the level of antibody necessary to inhibit 50% binding of ^125I-IGF-I ligand to immobilized human IGF-IR. Affinity was determined by BIAcore analysis according to manufacturer's specifications (Pharmacia BIACORE 3000). Soluble IGF-IR was immobilized on the sensor chips and antibody binding kinetics determined.
For orientation: ELISA stands for enzyme-linked immunosorbent assay.

As for “A12: fully human IgG1 anti-IGF-IR antibody, lambda light chain; VH SEQ ID NO:2, VL SEQ ID NO:10; affinity matured from 2F8”, the T/C % in experiment [1] (day 12, ip, A12 1 mg 3 times per week, irinotecan 2 mg or paclitaxel 121 μg every 7 days) is listed as 69%; in experiment [1] (day 15, same regimens) it was 62%; in experiment [1] (day 19, same regimens) it was 64%; in experiment [1] (day 22, same regimens), 58%; in experiment [1] (day 26, same regimens), 62%; in experiment [1] (day 29, same regimens), 61%. In addition, the T/C % is 58% in experiment [1] (day 33, same regimens); 53% in experiment [1] (day 36, same regimens); 54% in experiment [1] (day 40, same regimens). Moreover, in experiment [1] (single agent), the “inhibition of growth of HT-29 xenografts compared to TBS control” value is given as “significantly (P<0.02) inhibited”. Besides, the EC50 with IGF-IR was found to be 0.3 nM.

Values taken from patent US7968093B2, “Fully human antibodies directed against the human insulin-like growth factor-1 receptor” (ImClone LLC, priority 2003, dated 2011).
